Laboratory results taken from US20260250325A1, “Antiviral Polypeptide Membrane Fusion Inhibitor, and Preparation Method and Application Thereof” (priority 2025, published 2026).
Where a SMILES comes first, the peptide text is derived from it. The star is where a group is joined. Succinyl(4-O-cholesteryl) = CC(C)CCC[C@@H](C)[C@H]1CC[C@H]2[C@@H]3CC=C4C[C@@H](OC(=O)CCC(=O)*)CC[C@]4(C)[C@H]3CC[C@]12C; X1 = CC(C)CCCC(C)C1CCC2C3CC=C4CC(OC(=O)CCC(=O)*)CCC4(C)C3CCC12C

Key:
[1] = test system: hMPV A2; format: cell-based; details: Vero cells, plaque reduction
Experimental: (§1) African green monkey kidney cells (Vero) were sourced from the ATCC, with catalog number CCL-81. The cells were cultured in a DMEM culture solution in which 10% fetal bovine serum, 1% non-essential amino acids, 1% sodium pyruvate, 1% L-glutamine, 100 U/ml penicillin, and 100 μg/ml streptomycin were added.
(§2) A hMPV plaque experiment culture medium consisted of an Opti-MEM culture solution added with 1% non-essential amino acids, 100 U/mL penicillin, and 100 μg/mL streptomycin.
(§3) hMPV virus strains A2 and B1 were constructed by WuXi App Tec.
(§4) This study used a plaque reduction experiment to detect the in-vitro activity of a test sample against the hMPV virus strains A2 and B1.
(§5) The test sample and an experimental system were tested at 8 concentrations in duplicated wells. The Vero cells were digested with trypsin and then diluted to a concentration of 400,000 cells per milliliter by using a cell culture solution containing 2% serum. The diluted cells were added to a 96-well cell test board, with 100 μL per well, corresponding to 40000 cells per well. The cells were cultured overnight in a 37° C. incubator with 5% CO2.
(§6) On the second day, the test sample was diluted in an experimental culture medium at a fold ratio. The sample diluted at a fold ratio and an equal volume of virus (approximately 200 PFU per well) were well mixed and incubated at 33° C. in 5% CO2 for 1 h. Then, the culture solution in the 96-well cell test board was discarded, the sample virus mixed solution (100 μL) was added to the 96-well cell culture plate, and incubated at 37° C. in 5% CO2 for 2 hours. After 2 h, the sample virus mixed solution was discarded, 200 μL of an experiment culture medium containing the test sample with a corresponding concentration was added, and the culture solution contained 0.8% CMC and 5 μg/ml trypsin. A final concentration of DMSO in the culture solution was 0.5%. A system control antibody was directly added to the experiment culture solution containing 0.8% CMC and 5 μg/ml trypsin. A cell control (cells, without compound treatment or viral infection) and a viral control (cell infection virus, without compound treatment) were set. The cells were cultured for 1 day in the 33° C. incubator with 5% CO2.
(§7) The cells were fixed with 4% paraformaldehyde, and then permeabilization was performed with 0.5% Triton X-100. After the plate was washed with DPBS, a hMPV specific antibody (1:2000 dilution) was added and incubated at 37° C. for 1.5 h. Then, a secondary antibody (1:1000 dilution) was added and incubated at 37° C. for 1 hour. The secondary antibody was discarded, a TrueBlue solution was added, dyeing was performed for approximately 10 minutes; and the plate was washed with running water and then air-dried, and the number of spots in each well was counted by using a microplate imaging counter.
(§8) Raw data was used for analyzing the antiviral activity of the test samples. A calculation formula was shown as follows.
(§9) % inhibition rate=100−(sample value-cell control average value)/(virus control average value-cell control average value)×100
(§10) Non-linear fitting analysis was performed on the inhibition rate of the sample by using GraphPad Prism (version 10), so as to calculate an EC50 value for the sample. A fitting formula was log (inhibitor) vs. response-Variable slope (four parameters).

[2] = test system: hMPV B1; format: cell-based; details: Vero cells, plaque reduction
Experimental: as §1, §2, §3, §4, §5, §6, §7, §8, §9, §10

Row | Compound | EC50 [1] | EC50 [2]
1 | CC[C@H](C)[C@H](NC(=O)[C@H](CCCCN)NC(=O)[C@H](CCCCN)NC(=O)[C@H](CC(C)C)NC(=O)[C@H](CO)NC(=O)[C@H](CCC(=O)O)NC(=O)[C@H](CCC(=O)O)NC(=O)[C@@H](NC(=O)[C@H](CCCCN)NC(=O)[C@H](CCCCN)NC(=O)[C@H](CC(N)=O)NC(=O)[C@@H](NC(=O)[C@H](CCC(=O)O)NC(=O)[C@H](CCC(=O)O)NC(=O)[C@@H](NC(=O)[C@H](CCCCN)NC(=O)[C@H](CCCCN)NC(=O)[C@H](CCCCN)NC(=O)[C@H](CC(=O)O)NC(=O)[C@H](Cc1ccccc1)NC(=O)[C@H](CCC(=O)O)NC(=O)[C@H](CC(=O)O)NC(C)=O)[C@@H](C)CC)C(C)C)[C@@H](C)CC)C(=O)N[C@@H](CCC(=O)O)C(=O)N[C@@H](CCC(=O)O)C(=O)N[C@@H](CO)C(=O)N[C@@H](CC(=O)O)C(=O)N[C@@H](CCCCN)C(=O)N[C@@H](CCCCN)C(=O)N[C@@H](CC(C)C)C(=O)N[C@@H](CCC(=O)O)C(=O)N[C@@H](CCC(=O)O)C(=O)N[C@H](C(=O)NCC(=O)N[C@@H](CO)C(=O)NCC(=O)N[C@@H](CO)C(=O)NCC(=O)N[C@@H](CCCCNC(=O)CCC(=O)O[C@H]1CC[C@@]2(C)C(=CC[C@H]3[C@@H]4CC[C@H]([C@H](C)CCCC(C)C)[C@@]4(C)CC[C@@H]32)C1)C(N)=O)C(C)C [Compound 15] (Ac-DEFDKKKIEEVNKKIEESLKKIEESDKKLEEVGSGSGK(Succinyl(4-O-cholesteryl))-NH2) | 17.9 nM | 5.18 nM
2 | CC[C@H](C)[C@H](NC(=O)[C@H](CCCCN)NC(=O)[C@H](CCCCN)NC(=O)[C@H](CC(C)C)NC(=O)[C@H](CO)NC(=O)[C@H](CCC(=O)O)NC(=O)[C@H](CCC(=O)O)NC(=O)[C@@H](NC(=O)[C@H](CCCCN)NC(=O)[C@H](CCCCN)NC(=O)[C@H](CC(N)=O)NC(=O)[C@@H](NC(=O)[C@H](CCC(=O)O)NC(=O)[C@H](CCC(=O)O)NC(=O)[C@@H](NC(=O)[C@H](CCCCN)NC(=O)[C@H](CCCCN)NC(=O)[C@H](CC(=O)O)NC(=O)[C@H](Cc1ccccc1)NC(=O)[C@H](CCC(=O)O)NC(=O)[C@H](CC(=O)O)NC(=O)[C@H](CO)NC(C)=O)[C@@H](C)CC)C(C)C)[C@@H](C)CC)C(=O)N[C@@H](CCC(=O)O)C(=O)N[C@@H](CCC(=O)O)C(=O)N[C@@H](CO)C(=O)N[C@@H](CC(=O)O)C(=O)N[C@@H](CCCCN)C(=O)N[C@@H](CCCCN)C(=O)N[C@@H](CC(C)C)C(=O)N[C@@H](CCC(=O)O)C(=O)N[C@@H](C)C(=O)N[C@@H](C)C(=O)N[C@@H](C)C(=O)N[C@@H](CCCCN)C(=O)N[C@@H](CCCCNC(=O)CCC(=O)O[C@H]1CC[C@@]2(C)C(=CC[C@H]3[C@@H]4CC[C@H]([C@H](C)CCCC(C)C)[C@@]4(C)CC[C@@H]32)C1)C(N)=O [Compound 16] (Ac-SDEFDKKIEEVNKKIEESLKKIEESDKKLEAAAKK(Succinyl(4-O-cholesteryl))-NH2) | 7.35 nM | 4.5 nM
3 | CC[C@H](C)[C@H](NC(=O)[C@H](CCCCN)NC(=O)[C@H](CCCCN)NC(=O)[C@H](CC(C)C)NC(=O)[C@H](CO)NC(=O)[C@H](CCC(=O)O)NC(=O)[C@H](CCC(=O)O)NC(=O)[C@@H](NC(=O)[C@H](CCCCN)NC(=O)[C@H](CCCCN)NC(=O)[C@H](CC(N)=O)NC(=O)[C@@H](NC(=O)[C@H](CCC(=O)O)NC(=O)[C@H](CCC(=O)O)NC(=O)[C@@H](NC(=O)[C@H](CCCCN)NC(=O)[C@H](CCCCN)NC(=O)[C@H](CC(=O)O)NC(=O)[C@H](Cc1ccccc1)NC(=O)[C@H](CCC(=O)O)NC(=O)[C@H](CC(=O)O)NC(C)=O)[C@@H](C)CC)C(C)C)[C@@H](C)CC)C(=O)N[C@@H](CCC(=O)O)C(=O)N[C@@H](CCC(=O)O)C(=O)N[C@@H](CO)C(=O)N[C@@H](CC(=O)O)C(=O)N[C@@H](CCCCN)C(=O)N[C@@H](CCCCN)C(=O)N[C@@H](CC(C)C)C(=O)N[C@@H](CCC(=O)O)C(=O)N[C@@H](CCC(=O)O)C(=O)N[C@H](C(=O)N[C@@H](CCC(=O)O)C(=O)N[C@@H](C)C(=O)N[C@@H](C)C(=O)N[C@@H](C)C(=O)N[C@@H](CCCCN)C(=O)N[C@@H](CCCCNC(=O)CCC(=O)OC1CCC2(C)C(=CCC3C2CCC2(C)C(C(C)CCCC(C)C)CCC32)C1)C(N)=O)C(C)C (stereo partly shown) [Compound 21] (Ac-DEFDKKIEEVNKKIEESLKKIEESDKKLEEVEAAAKK(X1)-NH2) | 11.2 nM | 4.92 nM
4 | CC[C@H](C)[C@H](NC(=O)[C@H](CCCCN)NC(=O)[C@H](CCC(=O)O)NC(=O)[C@H](CC(C)C)NC(=O)[C@H](CO)NC(=O)[C@H](CCC(N)=O)NC(=O)[C@H](CC(N)=O)NC(=O)[C@@H](NC(=O)[C@H](CCCCN)NC(=O)[C@H](CCC(=O)O)NC(=O)[C@H](CC(N)=O)NC(=O)[C@@H](NC(=O)[C@H](CCC(N)=O)NC(=O)[C@H](CO)NC(=O)[C@H](C)NC(=O)[C@H](CC(=O)O)NC(=O)[C@H](Cc1ccccc1)NC(=O)[C@@H](NC(=O)[C@H](CC(C)C)NC(=O)[C@H](CCC(=O)O)NC(=O)[C@H](CC(=O)O)NC(=O)[C@H](Cc1ccc(O)cc1)NC(C)=O)C(C)C)C(C)C)[C@@H](C)CC)C(=O)N[C@@H](CCCNC(=N)N)C(=O)N[C@@H](CCCCN)C(=O)N[C@@H](CO)C(=O)N[C@@H](CC(=O)O)C(=O)N[C@@H](CCC(=O)O)C(=O)N[C@@H](CC(C)C)C(=O)N[C@@H](CC(C)C)C(=O)N[C@@H](Cc1c[nH]cn1)C(=O)N[C@@H](CC(N)=O)C(=O)N[C@H](C(=O)NCC(=O)N[C@@H](CO)C(=O)NCC(=O)N[C@@H](CO)C(=O)NCC(=O)N[C@@H](CCCCNC(=O)CCC(=O)O[C@H]1CC[C@@]2(C)C(=CC[C@H]3[C@@H]4CC[C@H]([C@H](C)CCCC(C)C)[C@@]4(C)CC[C@@H]32)C1)C(N)=O)C(C)C [Compound 25] (Ac-YDELVFDASQVNEKINQSLEKIRKSDELLHNVGSGSGK(Succinyl(4-O-cholesteryl))-NH2) | 86.4 nM | 38.1 nM
5 | CC[C@H](C)[C@H](NC(=O)[C@H](CCCCN)NC(=O)[C@H](CCC(=O)O)NC(=O)[C@H](CC(C)C)NC(=O)[C@H](CO)NC(=O)[C@H](CCC(N)=O)NC(=O)[C@H](CC(N)=O)NC(=O)[C@@H](NC(=O)[C@H](CCCCN)NC(=O)[C@H](CCC(=O)O)NC(=O)[C@H](CC(N)=O)NC(=O)[C@@H](NC(=O)[C@H](CCC(N)=O)NC(=O)[C@H](CO)NC(=O)[C@H](C)NC(=O)[C@H](CC(=O)O)NC(=O)[C@H](Cc1ccccc1)NC(=O)[C@@H](NC(=O)[C@H](CC(C)C)NC(=O)[C@H](CCC(=O)O)NC(=O)[C@H](CC(=O)O)NC(=O)[C@H](Cc1ccc(O)cc1)NC(C)=O)C(C)C)C(C)C)[C@@H](C)CC)C(=O)N[C@@H](CCCNC(=N)N)C(=O)N[C@@H](CCCCN)C(=O)N[C@@H](CO)C(=O)N[C@@H](CC(=O)O)C(=O)N[C@@H](CCC(=O)O)C(=O)N[C@@H](CC(C)C)C(=O)N[C@@H](CC(C)C)C(=O)N[C@@H](Cc1c[nH]cn1)C(=O)N[C@@H](CC(N)=O)C(=O)N[C@H](C(=O)N[C@@H](CCC(=O)O)C(=O)N[C@@H](C)C(=O)N[C@@H](C)C(=O)N[C@@H](C)C(=O)N[C@@H](CCCCN)C(=O)N[C@@H](CCCCNC(=O)CCC(=O)O[C@H]1CC[C@@]2(C)C(=CC[C@H]3[C@@H]4CC[C@H]([C@H](C)CCCC(C)C)[C@@]4(C)CC[C@@H]32)C1)C(N)=O)C(C)C [Compound 30] (Ac-YDELVFDASQVNEKINQSLEKIRKSDELLHNVEAAAKK(Succinyl(4-O-cholesteryl))-NH2) | 94.8 nM | 51.3 nM
